Measured values taken from ChEMBL document CHEMBL4507274 (2021).

Key:
[1] = system: Epidermal growth factor receptor (Homo sapiens), P00533 [G719S]; conditions: Compound concentration 100.0 nM
[2] = target: Tyrosine-protein kinase Lyn (Homo sapiens) (UniProt P07948); conditions: Compound concentration 100.0 nM
[3] = target: MAP kinase-interacting serine/threonine-protein kinase 2 (Homo sapiens) (UniProt Q9HBH9); conditions: Compound concentration 100.0 nM
[4] = target: Cyclin-dependent kinase-like 3 (Homo sapiens) (UniProt Q8IVW4); conditions: Compound concentration 100.0 nM
Sequence of Cyclin-dependent kinase-like 3 (Homo sapiens) (Q8IVW4 whole entry, looked up): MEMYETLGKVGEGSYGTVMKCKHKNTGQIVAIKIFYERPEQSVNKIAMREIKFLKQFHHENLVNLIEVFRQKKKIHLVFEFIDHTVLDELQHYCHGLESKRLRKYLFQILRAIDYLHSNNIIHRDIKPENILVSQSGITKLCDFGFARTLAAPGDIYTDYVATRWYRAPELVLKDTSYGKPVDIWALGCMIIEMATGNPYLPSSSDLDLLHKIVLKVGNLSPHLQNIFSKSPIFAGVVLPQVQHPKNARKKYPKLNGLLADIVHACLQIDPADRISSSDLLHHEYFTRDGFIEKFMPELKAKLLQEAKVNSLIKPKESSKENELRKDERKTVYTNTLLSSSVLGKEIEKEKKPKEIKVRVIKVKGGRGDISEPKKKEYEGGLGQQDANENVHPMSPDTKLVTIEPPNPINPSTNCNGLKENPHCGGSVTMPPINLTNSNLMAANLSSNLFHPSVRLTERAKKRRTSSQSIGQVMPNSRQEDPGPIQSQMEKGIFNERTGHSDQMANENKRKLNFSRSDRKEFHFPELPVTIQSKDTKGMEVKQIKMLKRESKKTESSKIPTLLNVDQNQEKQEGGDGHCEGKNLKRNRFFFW

[5] = target: Muscarinic acetylcholine receptor M2 (Homo sapiens) (UniProt P08172); conditions: Compound concentration 10.0 uM
[6] = target: G protein-coupled receptor kinase 3 (Homo sapiens) (UniProt P35626); conditions: Compound concentration 100.0 nM
Sequence of G protein-coupled receptor kinase 3 (Homo sapiens) (P35626 whole entry): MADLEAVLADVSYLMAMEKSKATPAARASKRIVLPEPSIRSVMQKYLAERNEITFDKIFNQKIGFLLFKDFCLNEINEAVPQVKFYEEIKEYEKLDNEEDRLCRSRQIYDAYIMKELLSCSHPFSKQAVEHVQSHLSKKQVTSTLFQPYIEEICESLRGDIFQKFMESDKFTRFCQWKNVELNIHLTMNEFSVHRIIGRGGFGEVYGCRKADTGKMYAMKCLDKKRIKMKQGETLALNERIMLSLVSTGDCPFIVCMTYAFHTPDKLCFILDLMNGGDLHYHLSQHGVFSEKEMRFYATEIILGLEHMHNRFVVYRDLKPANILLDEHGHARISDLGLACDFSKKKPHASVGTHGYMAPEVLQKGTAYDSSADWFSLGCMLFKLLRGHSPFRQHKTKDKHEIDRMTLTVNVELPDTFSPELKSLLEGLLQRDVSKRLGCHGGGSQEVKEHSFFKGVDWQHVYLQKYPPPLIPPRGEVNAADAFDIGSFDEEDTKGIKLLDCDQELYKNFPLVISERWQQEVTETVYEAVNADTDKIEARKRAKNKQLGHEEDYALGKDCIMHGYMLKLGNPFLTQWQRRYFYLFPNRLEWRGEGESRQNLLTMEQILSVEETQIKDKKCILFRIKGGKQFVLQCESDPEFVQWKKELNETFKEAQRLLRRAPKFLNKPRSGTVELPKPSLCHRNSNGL

[7] = system: Hepatocyte growth factor receptor (Homo sapiens), P08581 [M1250T]; conditions: Compound concentration 100.0 nM
[8] = target: Dual specificity mitogen-activated protein kinase kinase 3 (Homo sapiens) (UniProt P46734); conditions: Compound concentration 100.0 nM
[9] = target: Mitogen-activated protein kinase kinase kinase 20 (Homo sapiens) (UniProt Q9NYL2); conditions: Compound concentration 100.0 nM
[10] = target: Ribosomal protein S6 kinase alpha-4 (Homo sapiens) (UniProt O75676); conditions: Compound concentration 100.0 nM
[11] = target: Serine/threonine-protein kinase B-raf (Homo sapiens) (UniProt P15056); conditions: Compound concentration 100.0 nM
[12] = target: Serine/threonine-protein kinase 17A (Homo sapiens) (UniProt Q9UEE5); conditions: Compound concentration 100.0 nM
[13] = target: Cyclin-dependent kinase 11A (Homo sapiens) (UniProt Q9UQ88); conditions: Compound concentration 100.0 nM
[14] = target: Misshapen-like kinase 1 (Homo sapiens) (UniProt Q8N4C8); conditions: Compound concentration 100.0 nM
Sequence of Misshapen-like kinase 1 (Homo sapiens) (Q8N4C8 whole entry, looked up): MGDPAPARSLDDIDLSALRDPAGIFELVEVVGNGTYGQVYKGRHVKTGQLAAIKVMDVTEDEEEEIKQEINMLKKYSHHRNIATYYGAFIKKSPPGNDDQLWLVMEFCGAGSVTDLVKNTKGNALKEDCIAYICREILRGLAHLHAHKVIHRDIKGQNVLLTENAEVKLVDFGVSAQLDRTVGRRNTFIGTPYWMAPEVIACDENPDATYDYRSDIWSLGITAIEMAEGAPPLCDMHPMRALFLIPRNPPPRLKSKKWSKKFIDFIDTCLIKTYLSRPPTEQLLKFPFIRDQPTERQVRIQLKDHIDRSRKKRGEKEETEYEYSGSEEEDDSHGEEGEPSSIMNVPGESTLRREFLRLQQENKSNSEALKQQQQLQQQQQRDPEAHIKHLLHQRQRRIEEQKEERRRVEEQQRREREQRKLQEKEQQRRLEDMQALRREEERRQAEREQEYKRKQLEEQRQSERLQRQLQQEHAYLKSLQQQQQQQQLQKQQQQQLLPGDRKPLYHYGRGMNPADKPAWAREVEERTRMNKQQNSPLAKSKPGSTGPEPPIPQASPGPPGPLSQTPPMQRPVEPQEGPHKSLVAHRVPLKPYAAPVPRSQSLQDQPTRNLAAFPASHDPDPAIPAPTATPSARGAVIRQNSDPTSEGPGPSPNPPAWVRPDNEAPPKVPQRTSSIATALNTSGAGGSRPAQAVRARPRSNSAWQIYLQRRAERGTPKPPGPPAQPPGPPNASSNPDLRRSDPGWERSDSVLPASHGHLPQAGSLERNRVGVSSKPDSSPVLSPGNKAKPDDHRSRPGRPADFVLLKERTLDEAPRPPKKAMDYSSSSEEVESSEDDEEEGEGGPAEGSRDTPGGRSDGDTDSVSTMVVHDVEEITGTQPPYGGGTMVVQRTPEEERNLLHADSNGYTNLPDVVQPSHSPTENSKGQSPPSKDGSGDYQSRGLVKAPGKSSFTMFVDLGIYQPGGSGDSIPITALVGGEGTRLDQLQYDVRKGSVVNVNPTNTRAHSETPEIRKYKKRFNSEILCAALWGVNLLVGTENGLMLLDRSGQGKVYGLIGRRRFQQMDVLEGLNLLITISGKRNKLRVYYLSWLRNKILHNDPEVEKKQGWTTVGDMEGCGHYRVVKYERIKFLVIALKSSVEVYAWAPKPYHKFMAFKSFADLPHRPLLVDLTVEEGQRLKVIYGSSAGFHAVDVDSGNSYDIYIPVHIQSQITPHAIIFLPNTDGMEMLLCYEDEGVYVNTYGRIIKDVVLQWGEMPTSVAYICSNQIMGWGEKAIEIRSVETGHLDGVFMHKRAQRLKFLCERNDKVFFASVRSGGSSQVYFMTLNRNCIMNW

[15] = target: Sigma non-opioid intracellular receptor 1 (Homo sapiens, UniProt Q99720); conditions: Compound concentration 10.0 uM
[16] = target: Tyrosine-protein kinase ITK/TSK (Homo sapiens) (UniProt Q08881); conditions: Compound concentration 100.0 nM
Sequence of Tyrosine-protein kinase ITK/TSK (Homo sapiens) (Q08881 whole entry): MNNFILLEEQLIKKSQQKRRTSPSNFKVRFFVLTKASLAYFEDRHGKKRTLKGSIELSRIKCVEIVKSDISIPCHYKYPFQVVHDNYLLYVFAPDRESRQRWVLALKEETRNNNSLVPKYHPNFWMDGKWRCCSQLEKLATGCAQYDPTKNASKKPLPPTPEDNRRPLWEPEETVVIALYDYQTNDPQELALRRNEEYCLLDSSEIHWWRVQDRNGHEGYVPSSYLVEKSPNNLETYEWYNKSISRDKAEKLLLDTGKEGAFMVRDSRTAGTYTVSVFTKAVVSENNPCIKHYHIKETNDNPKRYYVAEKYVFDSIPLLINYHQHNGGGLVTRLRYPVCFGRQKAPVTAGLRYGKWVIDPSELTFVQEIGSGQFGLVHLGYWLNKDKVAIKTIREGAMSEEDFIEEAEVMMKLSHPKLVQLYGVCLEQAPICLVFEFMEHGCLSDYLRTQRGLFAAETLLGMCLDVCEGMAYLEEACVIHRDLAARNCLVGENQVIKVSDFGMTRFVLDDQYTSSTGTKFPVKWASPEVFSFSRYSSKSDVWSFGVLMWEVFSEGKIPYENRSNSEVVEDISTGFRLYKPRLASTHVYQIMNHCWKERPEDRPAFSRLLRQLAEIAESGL

[17] = target: Serine/threonine-protein kinase MAK (Homo sapiens) (UniProt P20794); conditions: Compound concentration 100.0 nM
Sequence of Serine/threonine-protein kinase MAK (Homo sapiens) (P20794 whole entry): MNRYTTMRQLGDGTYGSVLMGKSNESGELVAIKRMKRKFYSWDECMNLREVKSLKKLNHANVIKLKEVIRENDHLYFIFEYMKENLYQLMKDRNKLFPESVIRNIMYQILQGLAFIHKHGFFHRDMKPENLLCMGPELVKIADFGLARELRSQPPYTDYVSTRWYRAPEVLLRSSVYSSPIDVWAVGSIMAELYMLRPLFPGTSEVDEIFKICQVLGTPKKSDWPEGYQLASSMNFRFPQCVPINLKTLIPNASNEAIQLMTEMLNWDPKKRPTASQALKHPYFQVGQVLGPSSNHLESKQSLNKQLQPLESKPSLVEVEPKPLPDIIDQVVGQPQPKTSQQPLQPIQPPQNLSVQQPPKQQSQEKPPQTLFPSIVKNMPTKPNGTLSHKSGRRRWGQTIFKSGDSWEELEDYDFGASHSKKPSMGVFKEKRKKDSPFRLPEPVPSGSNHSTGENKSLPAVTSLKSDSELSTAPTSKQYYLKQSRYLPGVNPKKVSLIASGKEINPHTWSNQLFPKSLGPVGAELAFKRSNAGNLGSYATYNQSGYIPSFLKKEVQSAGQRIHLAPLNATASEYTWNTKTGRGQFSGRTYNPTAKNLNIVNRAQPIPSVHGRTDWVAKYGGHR

[18] = target: Focal adhesion kinase 1 (Homo sapiens) (UniProt Q05397); conditions: Compound concentration 100.0 nM
[19] = target: Tyrosine-protein kinase TXK (Homo sapiens) (UniProt P42681); conditions: Compound concentration 100.0 nM
[20] = system: Epidermal growth factor receptor (Homo sapiens), P00533 [UNDEFINED MUTATION]; conditions: Compound concentration 100.0 nM
[21] = target: Fibroblast growth factor receptor 1 (Homo sapiens) (UniProt P11362); conditions: Compound concentration 100.0 nM
[22] = target: Serine/threonine-protein kinase PLK1 (Homo sapiens) (UniProt P53350); conditions: Compound concentration 100.0 nM
[23] = target: Serine/threonine-protein kinase ULK1 (Homo sapiens) (UniProt O75385); conditions: Compound concentration 100.0 nM
[24] = system: MIA PaCa-2; assay: Pancreas MIA PaCa-2 cell line MDS Pharma Services Proliferation Assay; assay type: functional, cell-based, Homo sapiens
[25] = target: Ribosomal protein S6 kinase alpha-3 (Homo sapiens) (UniProt P51812); assay: Rsk2 (h) Upstate kinase activity assay; conditions: Compound concentration 10.0 uM
[26] = target: Ribosomal protein S6 kinase alpha-2 (Homo sapiens) (UniProt Q15349); assay: Rsk3 (h) Upstate kinase activity assay; conditions: Compound concentration 10.0 uM
[27] = target: Phosphatidylinositol 4,5-bisphosphate 3-kinase catalytic subunit alpha isoform (Homo sapiens) (UniProt P42336); assay: PIK3 (h) Upstate kinase activity assay; conditions: Compound concentration 10.0 uM
[28] = target: Protein kinase C theta type (Homo sapiens) (UniProt Q04759); assay: PKCtheta (h) Upstate kinase activity assay; conditions: Compound concentration 10.0 uM
[29] = Lung NCI-1-1460 cell line MDS Pharma Services Proliferation Assay; assay type: functional, cell-based, Homo sapiens
[30] = target: Tyrosine-protein kinase Fes/Fps (Homo sapiens) (UniProt P07332); assay: Fes (h) Upstate kinase activity assay; conditions: Compound concentration 10.0 uM
[31] = target: GABA-A receptor; anion channel (Rattus norvegicus) (UniProt O09028+P15431+P18506+P18508+P19969+P20236+P23574+P23576+P28471+P28473+P30191+P62813+P63079+P63138+Q91ZM7+Q9ES14); conditions: Compound concentration 10.0 uM
[32] = target: Casein kinase II subunit alpha (Homo sapiens) (UniProt P68400); assay: CK2 (h) Upstate kinase activity assay; conditions: Compound concentration 10.0 uM
[33] = target: Cyclin-dependent kinase 2/cyclin E (Homo sapiens) (UniProt P24864+P24941+O96020); assay: CDK2/ cyclin E (h) Upstate kinase activity assay; assay type: protein-complex assay; conditions: Compound concentration 10.0 uM
[34] = target: Tyrosine-protein kinase Lyn (Homo sapiens) (UniProt P07948); assay: Lyn (h) Upstate kinase activity assay; conditions: Compound concentration 10.0 uM
[35] = target: T1, Serine/threonine-protein kinase 3 (Homo sapiens) (UniProt Q13188); assay: MST2 (h) Upstate kinase activity assay; conditions: Compound concentration 10.0 uM
T1 sequence (whole entry): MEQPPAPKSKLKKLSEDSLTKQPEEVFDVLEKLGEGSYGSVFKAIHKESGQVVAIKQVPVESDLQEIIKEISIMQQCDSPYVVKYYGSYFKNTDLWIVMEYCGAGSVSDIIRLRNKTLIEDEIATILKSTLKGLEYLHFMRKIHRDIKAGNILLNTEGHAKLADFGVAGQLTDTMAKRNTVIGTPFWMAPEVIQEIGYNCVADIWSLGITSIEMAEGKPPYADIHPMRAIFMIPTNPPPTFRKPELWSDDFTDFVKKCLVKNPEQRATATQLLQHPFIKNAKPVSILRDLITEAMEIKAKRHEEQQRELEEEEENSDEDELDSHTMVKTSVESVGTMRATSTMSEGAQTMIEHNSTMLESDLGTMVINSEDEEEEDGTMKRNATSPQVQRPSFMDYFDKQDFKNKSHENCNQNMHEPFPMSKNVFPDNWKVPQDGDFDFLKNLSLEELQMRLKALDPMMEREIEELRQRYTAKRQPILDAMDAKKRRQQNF

Sequence of Tyrosine-protein kinase Lyn (Homo sapiens) (P07948 2-512 limits assumed): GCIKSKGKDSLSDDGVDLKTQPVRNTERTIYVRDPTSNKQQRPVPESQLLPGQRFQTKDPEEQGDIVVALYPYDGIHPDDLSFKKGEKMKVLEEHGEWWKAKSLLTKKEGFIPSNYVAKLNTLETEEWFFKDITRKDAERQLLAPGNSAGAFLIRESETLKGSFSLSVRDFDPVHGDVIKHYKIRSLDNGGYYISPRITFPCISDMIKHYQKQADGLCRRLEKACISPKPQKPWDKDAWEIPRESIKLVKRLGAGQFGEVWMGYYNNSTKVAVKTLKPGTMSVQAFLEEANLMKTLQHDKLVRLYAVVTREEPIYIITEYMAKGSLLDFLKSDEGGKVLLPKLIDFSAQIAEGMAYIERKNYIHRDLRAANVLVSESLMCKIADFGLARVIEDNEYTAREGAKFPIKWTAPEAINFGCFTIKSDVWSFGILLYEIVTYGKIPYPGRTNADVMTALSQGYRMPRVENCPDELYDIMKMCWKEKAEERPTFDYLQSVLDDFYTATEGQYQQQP
Sequence of MAP kinase-interacting serine/threonine-protein kinase 2 (Homo sapiens) (Q9HBH9 whole entry, looked up): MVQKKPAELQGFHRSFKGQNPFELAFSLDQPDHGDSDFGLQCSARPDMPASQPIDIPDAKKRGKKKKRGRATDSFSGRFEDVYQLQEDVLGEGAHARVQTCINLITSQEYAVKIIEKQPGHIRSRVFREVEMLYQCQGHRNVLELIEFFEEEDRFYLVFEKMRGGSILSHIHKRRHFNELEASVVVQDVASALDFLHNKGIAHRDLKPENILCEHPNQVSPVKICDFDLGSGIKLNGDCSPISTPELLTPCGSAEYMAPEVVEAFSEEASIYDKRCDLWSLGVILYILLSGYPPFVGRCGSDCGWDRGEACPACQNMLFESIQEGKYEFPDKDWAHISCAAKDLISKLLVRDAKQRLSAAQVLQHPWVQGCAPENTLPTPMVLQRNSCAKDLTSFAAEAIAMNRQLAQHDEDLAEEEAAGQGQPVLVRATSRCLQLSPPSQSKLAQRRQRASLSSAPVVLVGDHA

Cn1cc(Cl)c2c(Oc3c(F)cc(Nc4cc(Cl)nc(N)n4)cc3F)ccnc21 [BAY-4900]
inactive: residual activity [1] 98% | residual activity [2] 99% | residual activity [3] 90% | residual activity [4] 96% | inhibition [5] 0.85% | residual activity [6] 83% | residual activity [7] 100% | residual activity [8] 94% | residual activity [9] 97% | residual activity [10] 87% | residual activity [11] 100% | residual activity [12] 94% | residual activity [13] 100% | residual activity [14] 93% | inhibition [15] 22.3% | residual activity [16] 97% | residual activity [17] 97% | residual activity [18] 100% | residual activity [19] 100% | residual activity [20] 94% | residual activity [21] 100% | residual activity [22] 83% | residual activity [23] 93%

Cc1c[nH]c2nccc(Oc3c(F)cc(Nc4cc(Cl)nc(N)n4)cc3F)c12 [BAY-549]
98%: Mean % growth (n = 2) for 0.1 µM probe concentration ([24]; ± SEM 1 % growth) | Mean % growth (n = 2) for 0.01 µM probe concentration ([29]; ± SEM 1 % growth)
88%: Mean % growth (n = 2) for 1.0 µM probe concentration ([24]; ± SEM 3 % growth)
11 µM: TGI ([29]; Homo sapiens, Lung NCI-1-1460)
active: inhibition [15] 54.8%
-23%: Mean % growth (n = 2) for 100.0 µM probe concentration ([24]; ± SEM 5 % growth)
> 100 µM: CC50 ([24]; Homo sapiens, MIA PaCa-2, read-out: LC50 (the source's name)) | CC50 ([29]; Homo sapiens, Lung NCI-1-1460, read-out: LC50 (the source's name))
-45%: Mean % growth (n = 2) for 100.0 µM probe concentration ([29]; ± SEM 12 % growth)
48 µM: TGI ([24]; Homo sapiens, MIA PaCa-2)
8.9 µM: IC50 ([24]; Homo sapiens, MIA PaCa-2)
inactive: residual activity [2] 81% | residual activity [3] 90% | residual activity [4] 100% | inhibition [5] 7.41% | residual activity [6] 78% | residual activity [7] 99% | residual activity [8] 100% | residual activity [10] 100% | residual activity [11] 98% | residual activity [12] 100% | residual activity [13] 100% | inhibition [25] 61% | inhibition [26] 48% | residual activity [14] 100% | inhibition [27] -3% | residual activity [16] 81% | residual activity [17] 84% | inhibition [28] 42% | inhibition [30] 28% | residual activity [18] 100% | residual activity [19] 100% | inhibition [31] -8.68% | inhibition [32] 6% | inhibition [33] 40% | residual activity [21] 100% | inhibition [34] 31% | residual activity [22] 75% | residual activity [23] 92% | inhibition [35] 59%
2%: Mean % growth (n = 2) for 10.0 µM probe concentration ([29]; ± SEM 1 % growth)
45%: Mean % growth (n = 2) for 10.0 µM probe concentration [24]
50%: Mean % growth (n = 2) for 1.0 µM probe concentration ([29]; ± SEM 2 % growth)
82%: Mean % growth (n = 2) for 0.1 µM probe concentration ([29]; ± SEM 3 % growth)
95%: Mean % growth (n = 2) for 0.01 µM probe concentration ([24]; ± SEM 3 % growth)
